Broadly, the IC50 is the concentration needed to halve the response being measured.

Sequence of human TrkA (P04629 440-796): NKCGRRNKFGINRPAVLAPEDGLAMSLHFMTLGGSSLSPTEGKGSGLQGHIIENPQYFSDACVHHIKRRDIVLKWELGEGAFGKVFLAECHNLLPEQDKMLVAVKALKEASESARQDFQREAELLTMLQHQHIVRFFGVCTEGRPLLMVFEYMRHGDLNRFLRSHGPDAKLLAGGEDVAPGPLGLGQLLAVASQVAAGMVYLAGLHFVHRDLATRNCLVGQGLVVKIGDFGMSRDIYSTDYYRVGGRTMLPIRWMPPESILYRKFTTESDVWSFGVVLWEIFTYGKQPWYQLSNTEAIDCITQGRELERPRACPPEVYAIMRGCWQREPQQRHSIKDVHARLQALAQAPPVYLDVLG

The target of this assay is human TrkA (Homo sapiens (Human), UniProt P04629). The assay is described as follows: Human TrkA inhibition assay (Test Example 2). The format is biochemical. Particulars: Table 155, human TrkA inhibition; read-out: IC50. In a few lines:
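Recombinant TrkA (1 nmol/L) was preincubated 15 min at room temperature with compound in HEPES/MgCl2/DTT buffer, then reacted with FL-peptide 27 (1.5 μmol/L) and ATP (500 μmol/L) for 120 min at 37 °C. After EDTA stop, substrate phosphorylation was read by microfluidic mobility shift. IC50 came from logistic regression over 3-fold dilution series.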
Take `COCCN1C[C@@H](NC(=O)Nc2c(C)c(-c3cnc4c(c3)c(C(=O)OC)nn4C)nn2-c2ccccc2)[C@H](c2ccnc(F)c2)O1` (racemic) [Compound I-369]: the IC50 is less than 100 nM.
With `COCCN1C[C@@H](NC(=O)Nc2c(C)c(-c3cnc(N4CCN(C(=O)OCc5ccccc5)CC4)nc3)nn2-c2ccccc2)[C@H](c2cc(F)nc(F)c2)O1` (racemic) [Compound I-370] the figure was less than 100 nM; with `COCCN1C[C@@H](NC(=O)Nc2c(C)c(-c3cnc(N4CCN(C(=O)OCc5ccccc5)CC4)nc3)nn2-c2ccccc2)[C@H](c2ccnc(F)c2)O1` (racemic) [Compound I-371], less than 100 nM; with `COCCN1C[C@@H](NC(=O)Nc2c(C)c(-c3ccc(N4CCN(C(=O)OC(C)(C)C)CC4)nc3)nn2-c2ccccc2)[C@H](c2ccnc(F)c2)O1` (racemic) [Compound I-372], less than 100 nM.
The value for `COCCN1C[C@@H](NC(=O)Nc2c(C)c(-c3cnc(N4CC5(COC5)C4)nc3)nn2-c2ccccc2)[C@H](c2ccnc(F)c2)O1` (racemic) [Compound I-373] was less than 100 nM.
The value for `COCCN1C[C@@H](NC(=O)Nc2c(C)c(-c3ccc(N4CCNCC4)nc3)nn2-c2ccccc2)[C@H](c2ccnc(F)c2)O1` (racemic) [Compound I-374] was less than 100 nM; that for `COCCN1C[C@@H](NC(=O)Nc2c(C)c(-c3ccc(N4CCN(CC#N)CC4)nc3)nn2-c2ccccc2)[C@H](c2ccnc(F)c2)O1` (racemic) [Compound I-375] was less than 100 nM.
As to `COCCN1C[C@@H](NC(=O)Nc2c(C)c(-c3cnc4c(c3)c(C(=O)NC3CCN(C)CC3)nn4C)nn2-c2ccccc2)[C@H](c2ccnc(F)c2)O1` (racemic) [Compound I-376], the IC50 was less than 100 nM.
`COCCN1C[C@@H](NC(=O)Nc2c(C)c(-c3cnc4c(c3)c(C(=O)N3CCN(C)CC3)nn4C)nn2-c2ccccc2)[C@H](c2ccnc(F)c2)O1` (racemic) [Compound I-377]: the IC50 is less than 100 nM.
The value for `COCCN1C[C@@H](NC(=O)Nc2c(C)c(-c3cnc(N4CCCC4)nc3)nn2-c2ccccc2)[C@H](c2ccnc(F)c2)O1` (racemic) [Compound I-378] was less than 100 nM; that for `COCCN1C[C@@H](NC(=O)Nc2c(C)c(-c3cnc(N4CCN(C)CC4)nc3)nn2-c2ccccc2)[C@H](c2ccnc(F)c2)O1` (racemic) [Compound I-379] was less than 100 nM; that for `COCCN1C[C@@H](NC(=O)Nc2c(C)c(-c3cnc(N4CCN(C)CC4)nc3)nn2-c2ccccc2)[C@H](c2cc(F)nc(F)c2)O1` (racemic) [Compound I-380] was less than 100 nM.
Turning to `COCCN1C[C@@H](NC(=O)Nc2c(C)c(-c3cnc(OC4CCN(C)CC4)nc3)nn2-c2ccccc2)[C@H](c2ccnc(F)c2)O1` (racemic) [Compound I-381], the IC50 was less than 100 nM.
The value for `COCCN1C[C@@H](NC(=O)Nc2c(C)c(-c3ccc4c(c3)NCCO4)nn2-c2ccccc2)[C@H](c2ccnc(F)c2)O1` (racemic) [Compound I-382] was less than 100 nM; that for `COCCN1C[C@@H](NC(=O)Nc2c(C)c(-c3cc(F)c4c(c3)NCCO4)nn2-c2ccccc2)[C@H](c2ccnc(F)c2)O1` (racemic) [Compound I-383] was less than 100 nM; that for `CNC(=O)c1nn(-c2ccccc2)c(NC(=O)N[C@@H]2CN(CCOC)O[C@H]2c2ccnc(F)c2)c1C` (racemic) [Compound I-384] was less than 100 nM.
In the case of `COCCN1C[C@@H](NC(=O)Nc2c(C)c(C(=O)NCC(C)(C)O)nn2-c2ccccc2)[C@H](c2ccnc(F)c2)O1` (racemic) [Compound I-385], the IC50 was less than 100 nM.
`CNC(=O)c1cc(NC(=O)N[C@@H]2CN(CCOC)O[C@H]2c2ccnc(F)c2)n(-c2ccccc2)n1` (racemic) [Compound I-388]: the IC50 was greater than 1000 nM.
With `COCCN1C[C@@H](NC(=O)Nc2c(C)c(-c3cc(C(=O)NC(C)(C)C)c(=O)n(C)c3)nn2-c2ccccc2)[C@H](c2ccnc(F)c2)O1` (racemic) [Compound I-389] the figure was less than 100 nM.

Values taken from patent US10640495B2, “Heterocycle derivatives having TrkA inhibitory activity” (Shionogi & Co., Ltd., priority 2015, dated 2020).
